Source: paper PMC10799935, “Discovery of a peripheral 5HT2A antagonist as a clinical candidate for metabolic dysfunction-associated steatohepatitis” (Nature Communications, 2024)
Several values for one entry are separate records, joined by “and”; a condition that tells them apart may be missing. Identical values can stand only once.

Experiments:
[1] = test system: Col1a1; assay: CDAHFD mice: liver Col1a1 RNA expression (qRT-PCR); assay type: in vivo, mouse; conditions: for Relative liver Col1a1 expressions in mice, measured using quantitative RT-PCR: individual mice and Average; for Col1A1 mRNA, Mean Diff.: Tukey; for Col1A1 mRNA, Median / Col1A1 mRNA, Mean: n=5; for Col1A1 mRNA, Mean: Column A = 1
Description: C57BL/6 J male mice were purchased from the Japan SLC. Inc (Hamamatsu, Japan). Mice (5 weeks old) were fed Teklad Certitied Irradiated Global 18% protein rodent diet purchased from Dooyeol Biotech Co. Ltd (Seoul, South Korea) during the acclimation period. The liver fibrosis/inflammation-induced groups were CDAHFD-fed (A06071302, Research diet). […]. […] All animal experiments complied with the relevant ethical regulations.
The frozen liver tissue was homogenized and put into QiAzol (Qiagen, Hilden) to isolate RNA, and 4 μg of RNA was synthesized into cDNA using the RevertAid First Strand cDNA synthesis kit (Thermo Fischer, Waltham). The expressions of mouse collagen I (Forward: 5’-TGTGTTCCCTACTCAGCCGTG-3’. Reverse: 5’-CATCGGTCATGCTCTCTCCAA-3’), mouse α-SMA (Forward:5’-TCCTGACGCTGAAGTATCCGAT-3’, Reverse: 5’-GGCCACACAAAGCTCGTTATAG-3’) and mouse 36B4 (Forward: 5’-ACCTCCTTCTTCCAGGCTTT-3’, Reverse: 5’-CTCCAGTCTTTATCAGCTGC-3’) as house-keeping gene were measured using ViiA 7 Real-time PCR system (Thermo Fischer scientific).

[2] = test system: TNF-α; assay: CDAHFD mice: TNF-α immunohistochemical staining; assay type: in vivo, mouse; set-up: TNF-α immunohistochemical staining (TNF-a area), individual mouse / TNF-α immunohistochemical staining (TNF-a area), Average: unit not given here; conditions: for TNF-α immunohistochemical staining (TNF-a area), Average / TNF-α immunohistochemical staining (TNF-a area), individual mouse: CDAHFD mice; for TNF-α immunohistochemical staining (TNF-a area), Average: group average n=5, CDAHFD+Vehicle 9.246, Vehicle 2.978; for TNF-α immunohistochemical staining (TNF-a area), individual mouse: individual animals No. 1-5 (Fig.4g)
Description: C57BL/6 J male mice were purchased from the Japan SLC. Inc (Hamamatsu, Japan). Mice (5 weeks old) were fed Teklad Certitied Irradiated Global 18% protein rodent diet purchased from Dooyeol Biotech Co. Ltd (Seoul, South Korea) during the acclimation period. The liver fibrosis/inflammation-induced groups were CDAHFD-fed (A06071302, Research diet). […] All animal experiments complied with the relevant ethical regulations.
Mouse liver tissues were fixed in 4% formalin solution (Sigma–Aldrich, St. Louis, MO, USA) and embedded in paraffin. 4-μm-thick liver sections were deparaffinized in xylene, and rehydrated through descending grades of ethanol. To evaluate liver fibrosis, sections were stained with Sirius red solution and subjected to immunohistochemical staining. Tissue sections, after deparaffinization, underwent a 16-hour incubation in a solution containing 0.1% Direct Red 80 (365548, Sigma-Aldrich) dissolved in Picric acid (P-201, Spectrum Chemical, CA, USA) for Sirius red staining. The sections were briefly immersed in a 0.01 N HCl solution (1129, Ducksan, Republic of Korea) for 2 min. and then rinsed with distilled water for destaining. Subsequently, the sections underwent dehydration through […] grades of ethanol. Immunohistochemical staining was performed using the Polyview Plus HRP-DAB (anti-Rabbit) Kit (ENZ-KIT159-0150, ENZO Life Science, NY, USA) following the manufacturers’ instructions. Deparaffinized sections were boiled in IHC-TekTM Epitope Retrieval solution (IW-1100, IHCWORLD, MD, USA) for 45 min., cooled for 1 h, incubated in a 3% H2O2 solution (69355-0350, JUNSEI, Japan) for 15 min., washed, and then incubated overnight with primary antibodies (α-SMA, ab5694, Abcam, 1:500 dilution; TNF-α, ab6671, Abcam, 1:100 dilution and IL-1β, ab9722, Abcam, 1:100 dilution). Subsequently, the sections were treated with Polyview Plus HRP for 2 h and developed with DAB chromogen/substrate. Stained […] sections were confirmed by light microscopy (Olympus BX53 upright microscope, Tokyo, Japan). The degree of hepatic fibrosis and immunohistochemical staining was quantified by morphometric analysis of stained liver sections using NIH ImageJ software.

[3] = in vitro; conditions: rat, plasma
[4] = in vitro; conditions: human
[5] = in vitro; conditions: mouse
[6] = CDAHFD-fed 11c vs CDAHFD-fed vehicle group
[7] = Column C (11c 5mpk) vs. Column B
[8] = Column D (11c 10mpk) vs. Column B

Cc1nc2n(c(=O)c1CCN1CCC(=C3c4ccc(Cl)cc4CCc4cccnc43)CC1)CCCC2O (centres unmarked) [Compound 11c]
Relative liver Col1a1 expressions in mice, measured using quantitative RT-PCR ([1]; CDAHFD+11c 5 mpk): 27.265 and 19.811 and 25.539 and 19.317 and 28.556
Relative liver Col1a1 expressions in mice, measured using quantitative RT-PCR ([1]; CDAHFD+11c 5 mpk, mean): 24.098
Relative liver Col1a1 expressions in mice, measured using quantitative RT-PCR ([1]; CDAHFD+11c 10mpk): 18.660 and 20.539 and 29.586 and 37.388 and 28.021
Relative liver Col1a1 expressions in mice, measured using quantitative RT-PCR ([1]; CDAHFD+11c 10mpk, mean): 26.839
mRNA expression of Col1a1 in liver tissue [1, 6]: significantly decreased
Col1A1 mRNA, Mean Diff. ([1]; Column A (Vehicle, no CDAHFD) vs. Column C (11c 5mpk)): -23.1
Col1A1 mRNA, Mean Diff. ([1]; Column A (Vehicle, no CDAHFD) vs. Column D (11c 10mpk)): -25.84
Col1A1 mRNA, Mean Diff. ([1]; Column B (CDAHFD+vehicle) vs. Column C (11c 5mpk)): 14.99
Col1A1 mRNA, Mean Diff. ([1]; Column B (CDAHFD+vehicle) vs. Column D (11c 10mpk)): 12.25
Col1A1 mRNA, Difference between medians: Actual [1, 7]: -15.12
Col1A1 mRNA, Difference between medians: Hodges-Lehmann [1, 7]: -15.12
Col1A1 mRNA, Mean Diff. ([1]; Column C (11c 5mpk) vs. Column D (11c 10mpk)): -2.741
Col1A1 mRNA, Median ([1]; Column C (11c 5mpk)): 25.54, n=5
Col1A1 mRNA, Mean ([1]; Column C (CDAHFD+11c 5mpk)): 24.1
Col1A1 mRNA, Difference between medians: Actual [1, 8]: -12.64
Col1A1 mRNA, Difference between medians: Hodges-Lehmann [1, 8]: -12.18
Col1A1 mRNA, Median ([1]; Column D (11c 10mpk)): 28.02, n=5
Col1A1 mRNA, Mean ([1]; Column D (CDAHFD+11c 10mpk)): 26.84
TNF-α immunohistochemical staining (TNF-a area), Average ([2]; 11c 5 mpk): 4.057
TNF-α immunohistochemical staining (TNF-a area), individual mouse ([2]; 11c 5 mpk): 3.240 and 5.741 and 5.588 and 3.146 and 2.573
TNF-α immunohistochemical staining (TNF-a area), Average ([2]; 11c 10mpk): 5.049
TNF-α immunohistochemical staining (TNF-a area), individual mouse ([2]; 11c 10mpk): 7.848 and 3.111 and 8.161 and 2.686 and 3.441
TNF-α expression (immunohistochemical staining) [2, 6]: significant decrease
remaining at 4 h [3]: > 99.9%
IC50 [4]: > 100 µM
IC50 [5]: > 100 µM
